Experimental data as given in ChEMBL document CHEMBL1782056, “A novel series of piperazinyl-pyridine ureas as antagonists of the purinergic P2Y12 receptor” (Bioorg Med Chem Lett, 2011).
Values after ≈ are worked out from the molar mass of the structure shown.

Test: physchem
Conditions: HBSS buffer, pH 6.5

| Compound | solubility [µM] |
| --- | --- |
| CCOC(=O)c1cnc(N2CCN(C(=O)Nc3ccccc3)CC2)c(C#N)c1 | 90 (≈ 34.1 µg/mL) |
| CCOC(=O)c1cc(C#N)c(N2CCN(C(=O)Nc3ccccc3)CC2)nc1C(F)(F)F | < 0.1 |
| CCOC(=O)c1cnc(N2CCN(C(=O)Nc3ccccc3)CC2)c(Cl)c1 | 40 (≈ 15.6 µg/mL) |
| C[C@]12CC[C@H]3[C@@H](CCC4=CC(=O)CC[C@@]43C)[C@@H]1CC[C@@H]2O [TESTOSTERONE] | 75 (≈ 21.6 µg/mL) |
| CCOC(=O)C1=C(C)NC(C)=C(C(=O)OC)C1c1cccc(Cl)c1Cl (stereo not given) [FELODIPINE] | 1 (≈ 0.384 µg/mL) |
